Columns and labels:
[1] = system: Candida spp., Cryptococcus spp., Aspergillus spp., Scedosporium spp., Fusarium spp., and some Mucorales fungi; assay: In vitro antifungal activity; format: cell-based
Excerpt: These rare mold and rare yeast species generally pose no threat to healthy subjects, but can lead to invasive mold infections in immunocompromised individuals.

[2] = target: fungal glycosylphosphatidylinositol (GPI)-anchored wall transfer protein 1 (GWT1) enzyme (Saccharomyces cerevisiae, UniProt P47026); assay: Inhibition of fungal GWT1 enzyme; format: biochemical
Excerpt: (§1) Compound 1A inhibits the fungal glycosylphosphatidylinositol (GPI)-anchored wall transfer protein 1 (GWT1) enzyme, a highly conserved inositol acylase that catalyzes an early step in the GPI-anchored biosynthesis pathway. This inhibition has pleiotropic effects on the fungal cell due to inhibition of cell wall mannoprotein localization, which comprises cell wall integrity, biofilm formation, germ tube formation, and fungal growth.

[3] = target: T1, phosphatidylinositol glycan anchor biosynthesis class W (PIGW) protein (Homo sapiens, UniProt Q7Z7B1); assay: Inhibition of PIGW, closest mammalian ortholog of GWT1; format: biochemical; details: closest mammalian ortholog of the fungal GWT1 protein
T1 sequence (Q7Z7B1 1-504): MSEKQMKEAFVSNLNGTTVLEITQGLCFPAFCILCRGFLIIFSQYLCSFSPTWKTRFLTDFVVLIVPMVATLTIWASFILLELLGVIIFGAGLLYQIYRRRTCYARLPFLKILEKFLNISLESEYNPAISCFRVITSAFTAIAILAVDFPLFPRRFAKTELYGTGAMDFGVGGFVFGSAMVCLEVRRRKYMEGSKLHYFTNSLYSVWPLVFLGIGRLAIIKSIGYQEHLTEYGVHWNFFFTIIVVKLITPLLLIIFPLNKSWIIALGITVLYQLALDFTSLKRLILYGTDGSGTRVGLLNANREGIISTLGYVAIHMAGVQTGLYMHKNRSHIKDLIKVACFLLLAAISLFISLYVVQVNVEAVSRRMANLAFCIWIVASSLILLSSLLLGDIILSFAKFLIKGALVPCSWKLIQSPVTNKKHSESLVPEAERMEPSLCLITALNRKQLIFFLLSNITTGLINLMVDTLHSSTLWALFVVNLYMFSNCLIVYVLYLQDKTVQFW
Excerpt: as §1

[4] = system: Aspergillus fumigatus, Scedosporium prolificans, and Fusarium solani; assay: 5-fluorouracil immunosuppressed mice with IMIs; format: in vivo
[5] = system: Aspergillus spp. clinical isolates; assay: 2017 and 2018 surveillance of antifungal activity against Aspergillus clinical isolates (MEC); format: cell-based; details: Aspergillus isolates likely to be found in the clinical patient population
Description: The MEC in […] (MEC90) for Aspergillus isolates likely to be found in the clinical patient population under study is 0.03 μg/mL.

[6] = in vivo
[7] = system: Fusarium, Aspergillus/Lichtheimia, C. albicans, L. prolificans infection; details: human, in vivo
Description: Population: A total of 15 patients with life-threatening/serious fungal infections received treatment, with slight modifications. […] Of these patients, 12 have an invasive Fusarium infection, while the remaining patients have Aspergillus/Lichtheimia infection, C. albicans infection, and L. prolificans infection. […] These patients show a broad range of fungal infection sites with sinus, spine, ankle, skin, eye, brain, and disseminated infections all observed. Many of these patients also have an underlying disease/condition, such as AML/ALL/MDS, SC/solid organ transplantation, or trauma.
Updates to Dosing Regimen: Seven patients received IV dosing of compound 1, and six of these seven switched to oral doses. Eight patients received oral doses only. […] Additionally, eight patients received oral compound 1 at 400 mg BID rather than 800 mg QD.

[8] = system: A. fumigatus; assay: PK-PD study in immunocompromised mice infected with 6 strains of A. fumigatus; format: in vivo; details: fungal burden (CEs by qPCR) in lung homogenates at 96 hours; 6 A. fumigatus strains
Description: Pharmacokinetic-pharmacodynamic (PK-PD) studies in immunosuppressed mice with invasive infections caused by A. fumigatus have shown that the area under the concentration-time curve (AUC) divided by the minimal effective concentration (MEC) ratio is the driver of efficacy.
In a pharmacokinetic/pharmacodynamic (PK-PD) study, immunocompromised mice were infected with 6 strains of A. fumigatus, inclusive of wild type, azole-resistant, and echinocandin-resistant strains. Groups of animals were dosed with compound 1 at different dose fractionations. […] The stasis and 1-logarithm drop endpoints were defined as the quantity of A. fumigatus in CEs just prior to compound 1 administration compared to CEs at the endpoint of assessment at 96 hours.

[9] = system: Aspergillus spp. or rare molds; assay: Phase 2 open-label study in patients with invasive mold infections; format: in vivo, human; details: 12 patients treated
Description: This is a Phase 2, multicenter, open-label, non-comparative study to evaluate the safety and efficacy of compound 1 for the treatment of IMIs caused by Aspergillus spp. or rare molds (e.g., Scedosporium spp., Fusarium spp., and Mucorales fungi). Patients 18 years of age or older will undergo Screening procedures for up to 5 days, following which eligible patients will participate in the study drug Treatment Period for up to 6 weeks, with a Follow-Up Visit 4 weeks after EOST, and a Follow-Up Phone Call 12 weeks after Day 1 (Day 84). The total duration of a patient's participation in the study will be approximately 12 weeks, inclusive of the follow-up telephone call required on Day 84. Patients who require treatment for longer than 6 weeks can be switched to other licensed antifungal therapy (OLAT) at the discretion of the Investigator and in consultation with the Medical Monitor if the situation allows.
This study will consist of a single treatment arm consisting of a loading dose of 1000 mg compound 1, administered over 3 hours by IV infusion twice daily (BID) within the first 24 hours after initiation of the first infusion. On Days 2 and 3, 600 mg compound 1 will be administered over 3 hours by IV infusion once daily (QD). […]

[10] = Phase 1, healthy volunteers
Excerpt: The duration of the multiple-dose regimens in these studies was 7, 14, and 42 days (6 weeks).
One dose regimen of compound 1 will be evaluated in this study.

Sequence of fungal glycosylphosphatidylinositol (GPI)-anchored wall transfer protein 1 (GWT1) enzyme (P47026 whole entry): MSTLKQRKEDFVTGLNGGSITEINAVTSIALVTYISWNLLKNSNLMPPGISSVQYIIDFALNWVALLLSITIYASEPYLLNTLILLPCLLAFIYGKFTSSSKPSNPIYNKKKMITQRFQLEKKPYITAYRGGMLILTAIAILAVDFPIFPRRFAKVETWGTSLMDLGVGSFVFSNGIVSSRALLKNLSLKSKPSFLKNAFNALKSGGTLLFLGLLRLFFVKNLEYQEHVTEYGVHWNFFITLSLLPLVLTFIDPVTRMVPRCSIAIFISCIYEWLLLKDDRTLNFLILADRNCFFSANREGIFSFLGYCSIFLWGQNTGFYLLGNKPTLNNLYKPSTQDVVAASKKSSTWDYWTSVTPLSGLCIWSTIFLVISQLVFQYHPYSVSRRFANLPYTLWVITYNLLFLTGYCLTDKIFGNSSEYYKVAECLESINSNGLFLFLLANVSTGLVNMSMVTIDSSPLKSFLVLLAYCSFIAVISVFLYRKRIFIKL

| SMILES | in vitro antifungal activity ([1]; including azole- and echinocandin-resistant strains) | antifungal activity against clinical isolates of rare mold and rare yeast infections ([1]; rare molds and rare yeasts listed) | inhibition of fungal GWT1 enzyme [2] | inhibition of PIGW protein [3] | pulmonary fungal colony counts [4] | survival rates [4] | MEC90 [5] | conversion of prodrug to active moiety compound 1A [6] | tissue distribution [6] | tolerability over extended treatment durations [7] | median total drug AUC/MEC which achieved 1-logarithm kill endpoint [8] | median total drug AUC/MEC which achieved stasis endpoint [8] | patients with good response (at Day 42 or earlier) [9] | safety and tolerability of the dose regimen [10] |
| --- | --- | --- | --- | --- | --- | --- | --- | --- | --- | --- | --- | --- | --- | --- |
| Nc1ncccc1-c1cc(Cc2ccc(COc3ccccn3)cc2)no1 [Compound 1A] | broad in vitro antifungal activity | antifungal activity against a broad range of clinical isolates | inhibits | does not inhibit | reduced pulmonary fungal colony counts | statistically significantly improved survival rates | 0.03 µg/mL | – | – | – | – | – | – | – |
| Nc1c(-c2cc(Cc3ccc(COc4ccccn4)cc3)no2)ccc[n+]1COP(=O)([O-])O [compound 1] | – | – | – | – | – | – | – | rapidly converted in vivo by phosphatases | wide-tissue distribution, including the eye and central nervous system | generally well tolerated | 5258.2 | 2801.6 | 8 patients | safe and well tolerated |
